# Measured values from ChEMBL document CHEMBL6134800, “Applications of innovative synthetic strategies in anticancer drug discovery: The driving force of new chemical reactions” (Bioorg Med Chem Lett, 2025).
# What was measured:
# [1] = tested on: HCC1806; experiment: Antiproliferative activity against human HCC1806 cells assessed as inhibition of cell growth at 30 uM relative to control; format: functional
# [2] = target: Lysine-specific demethylase 5C (Homo sapiens, UniProt P41229); experiment: Inhibition of KDM5C (unknown origin)
# Chain of Lysine-specific demethylase 5C (P41229 whole entry): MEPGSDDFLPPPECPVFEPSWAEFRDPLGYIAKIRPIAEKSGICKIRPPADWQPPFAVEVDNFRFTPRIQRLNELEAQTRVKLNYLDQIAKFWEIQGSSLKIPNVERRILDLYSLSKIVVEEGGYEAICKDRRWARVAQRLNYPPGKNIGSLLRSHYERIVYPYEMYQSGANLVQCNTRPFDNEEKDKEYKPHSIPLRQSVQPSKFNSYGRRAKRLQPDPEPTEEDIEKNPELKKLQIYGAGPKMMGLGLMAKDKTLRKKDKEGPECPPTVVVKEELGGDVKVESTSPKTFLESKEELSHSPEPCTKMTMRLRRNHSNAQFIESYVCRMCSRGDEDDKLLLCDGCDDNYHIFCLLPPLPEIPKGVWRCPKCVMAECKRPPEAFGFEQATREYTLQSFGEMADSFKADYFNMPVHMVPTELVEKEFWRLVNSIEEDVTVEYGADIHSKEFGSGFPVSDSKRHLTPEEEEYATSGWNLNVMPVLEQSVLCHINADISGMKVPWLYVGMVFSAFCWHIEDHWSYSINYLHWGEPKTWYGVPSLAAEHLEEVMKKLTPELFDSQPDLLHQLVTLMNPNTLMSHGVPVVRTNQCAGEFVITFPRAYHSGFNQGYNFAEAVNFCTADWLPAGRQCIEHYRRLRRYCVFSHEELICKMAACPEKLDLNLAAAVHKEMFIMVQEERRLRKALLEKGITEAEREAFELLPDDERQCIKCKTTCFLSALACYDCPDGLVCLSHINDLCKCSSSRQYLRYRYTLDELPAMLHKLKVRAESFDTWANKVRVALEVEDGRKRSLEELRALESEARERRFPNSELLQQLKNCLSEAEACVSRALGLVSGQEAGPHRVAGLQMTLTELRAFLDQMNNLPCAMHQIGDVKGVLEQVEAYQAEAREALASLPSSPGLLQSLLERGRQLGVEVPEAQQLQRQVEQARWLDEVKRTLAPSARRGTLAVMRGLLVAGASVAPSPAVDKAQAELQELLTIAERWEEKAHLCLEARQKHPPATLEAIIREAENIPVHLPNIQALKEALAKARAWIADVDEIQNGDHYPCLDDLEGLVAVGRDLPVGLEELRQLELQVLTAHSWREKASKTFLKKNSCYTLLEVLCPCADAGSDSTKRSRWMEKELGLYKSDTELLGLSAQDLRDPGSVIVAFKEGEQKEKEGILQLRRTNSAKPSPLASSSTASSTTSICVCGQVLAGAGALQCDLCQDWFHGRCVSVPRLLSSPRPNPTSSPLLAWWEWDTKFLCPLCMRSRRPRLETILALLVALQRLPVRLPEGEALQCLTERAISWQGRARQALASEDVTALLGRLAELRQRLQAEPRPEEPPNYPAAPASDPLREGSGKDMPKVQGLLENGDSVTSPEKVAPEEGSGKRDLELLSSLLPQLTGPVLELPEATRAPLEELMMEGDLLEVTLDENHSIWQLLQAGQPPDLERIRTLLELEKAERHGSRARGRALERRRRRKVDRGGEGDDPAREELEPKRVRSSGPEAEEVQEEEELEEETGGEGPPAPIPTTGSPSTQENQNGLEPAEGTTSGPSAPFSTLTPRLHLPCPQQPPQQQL
# [3] = tested on: HeLa; experiment: Antiproliferative activity against human HeLa cells; format: functional, cell-based
# [4] = tested on: KBv200; experiment: Cytotoxicity against human KBv200 cells assessed as reduction in cell viability incubated for 72 hrs by SRB assay; format: functional, cell-based; conditions: KBv200, 72 h
# [5] = tested on: K562/Adr; experiment: Antiproliferative activity against human K562/Adr cells assessed as reduction in cell growth incubated for 72 hrs by MTT assay; format: functional, cell-based
# [6] = tested on: HeLa; experiment: Antiproliferative activity against human Hela cells by MTT assay; format: functional, cell-based
# [7] = tested on: U-87 MG; experiment: Antiproliferative activity against human U-87 MG cells assessed as reduction in cell viability by MTT assay; format: functional, cell-based, U-87MG ATCC
# [8] = tested on: HeLa; experiment: Antiproliferative activity against human HeLa cells assessed as reduction in cell viability by MTT assay; format: functional, cell-based
# [9] = tested on: MCF7; experiment: Antiproliferative activity against human MCF7 cells assessed as reduction in cell viability incubated for 72 hrs by MTT assay; format: functional, cell-based; conditions: MCF7, 72 h
# [10] = tested on: MCF7; experiment: Antiproliferative activity against human MCF7 cells assessed as reduction in cell growth; format: functional, cell-based
# [11] = tested on: Mycobacterium tuberculosis; experiment: Antimycobacterial activity against Mycobacterium tuberculosis H37Rv assessed as bacterial growth inhibition by microplate Alamar blue assay; format: functional
# [12] = tested on: MDA-MB-231; experiment: Antiproliferative activity against human MDA-MB-231 cells by CCK8 assay; format: functional, cell-based
# [13] = tested on: SMMC-7721; experiment: Antiproliferative activity against human SMMC-7721 cells by CCK8 assay; format: functional, cell-based
# [14] = tested on: L02; experiment: Antiproliferative activity against human L02 cells by CCK8 assay; format: functional, cell-based
# [15] = tested on: QGY-7703; experiment: Antiproliferative activity against human QGY-7703 cells by CCK8 assay; format: functional, cell-based
# [16] = tested on: HCT-116; experiment: Antiproliferative activity against human HCT-116 cells assessed as inhibition of cell growth at 20 uM incubated for 48 hrs by MTT assay relative to control; format: functional
# [17] = tested on: A549; experiment: Antiproliferative activity against human A549 cells assessed as inhibition of cell growth at 20 uM incubated for 48 hrs by MTT assay relative to control; format: functional
# [18] = tested on: MDA-MB-231; experiment: Cytotoxicity against human MDA-MB-231 cells assessed as reduction in cell viability incubated for 24 hrs by CCK-8 assay; format: functional, cell-based; conditions: MDA-MB-231, 24 h
# [19] = tested on: DU-145; experiment: Cytotoxicity against human DU-145 cells assessed as reduction in cell viability incubated for 48 hrs by SRB assay; format: functional, cell-based; conditions: DU-145, 48 h
# [20] = tested on: HeLa; experiment: Cytotoxicity against human HeLa cells assessed as reduction in cell viability incubated for 48 hrs by SRB assay; format: functional, cell-based
# [21] = tested on: HepG2; experiment: Cytotoxicity against human HepG2 cells assessed as reduction in cell viability incubated for 48 hrs by SRB assay; format: functional, cell-based; conditions: HepG2, 48 h
# [22] = tested on: MDA-MB-231; experiment: Cytotoxicity against human MDA-MB-231 cells assessed as reduction in cell viability incubated for 48 hrs by SRB assay; format: functional, cell-based; conditions: MDA-MB-231, 48 h
# [23] = tested on: MCF7; experiment: Cytotoxicity against human MCF7 cells assessed as reduction in cell viability incubated for 48 hrs by SRB assay; format: functional, cell-based; conditions: MCF7, 48 h
# [24] = target: Indoleamine 2,3-dioxygenase 1 (Homo sapiens, UniProt P14902); experiment: Inhibition of N-terminal His-tagged human IDO1 extracted from Escherichia coli
# Chain of Indoleamine 2,3-dioxygenase 1 (P14902 whole entry): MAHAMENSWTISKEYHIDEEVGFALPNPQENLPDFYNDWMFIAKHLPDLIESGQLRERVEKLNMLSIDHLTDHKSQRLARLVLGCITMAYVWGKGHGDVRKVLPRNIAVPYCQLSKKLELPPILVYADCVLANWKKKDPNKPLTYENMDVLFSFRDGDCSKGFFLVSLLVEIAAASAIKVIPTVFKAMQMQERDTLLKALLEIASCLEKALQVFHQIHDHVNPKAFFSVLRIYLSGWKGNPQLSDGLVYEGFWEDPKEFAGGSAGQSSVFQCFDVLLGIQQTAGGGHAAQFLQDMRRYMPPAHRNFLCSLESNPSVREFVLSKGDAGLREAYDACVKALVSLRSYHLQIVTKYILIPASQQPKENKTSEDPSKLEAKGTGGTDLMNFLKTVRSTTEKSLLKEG
# [25] = tested on: 4T1; experiment: Anticancer activity against mouse 4T1 cells assessed as reduction in cell growth; format: functional, cell-based
# [26] = tested on: HeLa; experiment: Anticancer activity against human HeLa cells assessed as reduction in cell growth; format: functional, cell-based
# [27] = tested on: CAL-27; experiment: Antiproliferative activity against human CAL-27 cells assessed as reduction in cell viability incubated for 24 hrs by MTT assay; format: functional, cell-based; conditions: CAL-27, 24 h
# [28] = tested on: HCT-116; experiment: Antiproliferative activity against human HCT-116 cells by MTT assay; format: functional, cell-based
# [29] = tested on: HepG2; experiment: Cytotoxicity against human HepG2 cells assessed as reduction in cell viability incubated for 24 hrs by CCK-8 assay; format: functional, cell-based; conditions: HepG2, 24 h
# [30] = tested on: K562; experiment: Antiproliferative activity against human K562 cells assessed as reduction in cell viability incubated for 72 hrs by Celltiter-Glo reagent based assay; format: functional; conditions: K562, 72 h
# [31] = tested on: Jurkat; experiment: Antiproliferative activity against human Jurkat cells assessed as reduction in cell viability incubated for 72 hrs by Celltiter-Glo reagent based assay; format: functional
# [32] = tested on: Candida albicans; experiment: Antifungal activity against Candida albicans MTCC 3020 assessed as reduction in fungal growth; format: functional
# [33] = tested on: K562/Adr; experiment: Reversal of multidrug resistance in human K562/Adr cells assessed as reversal fold by measuring ratio of adriamycin IC50 to adriamycin IC50 in presence of test compound at 10 uM; format: functional
# [34] = tested on: MDA-MB-231; experiment: Antiproliferative activity against human MDA-MB-231 cells assessed as reduction in cell viability incubated for 72 hrs by Celltiter-Glo reagent based assay; format: functional; conditions: MDA-MB-231, 72 h
# [35] = tested on: HepG2; experiment: Antiproliferative activity against human HepG2 cells assessed as reduction in cell viability incubated for 72 hrs by Celltiter-Glo reagent based assay; format: functional; conditions: HepG2, 72 h
compound,measurement,setting,value
COC(=O)[C@@H]1Cc2c[nH]c3c(cccc23)/C=C/C(=O)OCCCC(=O)N[C@@H](CC(C)C)C(=O)N2CCC[C@H]2C(=O)N[C@@H](Cc2ccccc2)C(=O)N1,inhibition at 30 µM,[1],97%
CCCCCCN(C)CCn1cc(-c2cccc(C(=O)O)c2)nn1,IC50,[2],3010 nM
Cc1cccc2c1C(=O)N1CCN(c3ccccc3)C1(C(F)(F)F)C2 (stereo not given),IC50,[3],1430 nM
CC(=O)O[C@@]12CO[C@@H]1C[C@H](O)[C@@]1(C)C(=O)[C@H](O)C3=C(C)[C@@H](OC(=O)[C@H](O)[C@@H](NC(=O)OC(C)(C)C)c4ccccc4)C[C@@](O)([C@@H](OC(=O)c4ccccc4)[C@H]21)C3(C)C [DOCETAXEL ANHYDROUS],IC50,[4],104 nM
same,IC50,[5],1030 nM
O=C(Nc1cccc2cccnc12)c1ccccc1-c1ccc2c(c1)c1ccccc1n2-c1ccccc1,IC50,[6],37100 nM
CC[C@H](C)[C@@H]1NC(=O)[C@H](Cc2ccccc2)NC(=O)CC[C@@H](C(=O)OC)NC(=O)COC(=O)/C=C/c2cccc3c(c[nH]c23)C[C@@H](C(=O)OCc2ccccc2)NC1=O,inhibition at 30 µM,[1],99%
COC(=O)[C@@H](NC(=O)[C@H](CC(C)C)NC(=O)[C@H](Cc1ccccc1C1=CC(=O)C=CC1=O)NC(=O)[C@@H](NC(=O)OC(C)(C)C)C(C)(C)C)C(C)C,IC50,[7],32000 nM
COC(=O)[C@H](CC(C)C)NC(=O)[C@H](Cc1ccccc1C1=CC(=O)C=CC1=O)NC(=O)[C@@H](NC(=O)OC(C)(C)C)C(C)(C)C,IC50,[8],40000 nM
Cc1ccccc1C(c1c[nH]c2ccccc12)c1c[nH]c2ccccc12,IC50,[9],5690 nM
CCOC(=O)C1=C(Nc2ccc(OC)cc2)C[C@H](c2ccc(Cl)cc2)N(c2ccc(OC)cc2)[C@H]1c1ccc(Cl)cc1,IC50,[10],34.2 µg/mL
CCOC(=O)C1=C(Nc2ccc(Cl)cc2)C[C@H](c2ccc(OC)cc2)N(c2ccc(Cl)cc2)[C@H]1c1ccc(OC)cc1,MIC,[11],12.5 µg/mL
COC(=O)[C@]1(C)CC[C@]2(C)CC[C@]3(C)C4=CC=C5C(=CC(=O)C(O)=C5C)[C@]4(C)CC[C@@]3(C)[C@@H]2C1 [PRISTIMERIN],IC50,[12],1010 nM
same,IC50,[13],1970 nM
same,IC50,[14],3600 nM
same,IC50,[15],2340 nM
C[Si](C)(C)c1ccc(C(c2c[nH]c3ccccc23)c2c[nH]c3ccccc23)cc1,IC50,[9],6710 nM
COc1ccc(-c2c(-c3cc(OC)c(OC)c(OC)c3)cc(-c3cc(OC)c(OC)c(OC)c3)oc2=O)cc1OC,inhibition at 20 µM,[16],89.4%
same,inhibition at 20 µM,[17],82.9%
COc1ccc2c(c1)CC(Nc1ccccc1)(C(F)(F)F)n1c-2nc2ccccc21 (stereo not given),IC50,[18],1300 nM
CCOC(=O)c1sc(-c2ccc(OCC(C)C)c(C(Nc3ccc([N+](=O)[O-])cc3)P(=O)(OCC)OCC)c2)nc1C (stereo not given),IC50,[19],2.13 µg/mL
same,IC50,[20],9.6 µg/mL
same,IC50,[21],20.9 µg/mL
same,IC50,[22],6.3 µg/mL
same,IC50,[23],12.3 µg/mL
COC(=O)[C@]1(C)CC[C@]2(C)CC[C@]3(C)C4=CC=C5C(=CC(=O)C(OC(=O)CCCc6cn(CCCO[C@@H]7O[C@H](CO)[C@@H](O)[C@H](O)[C@H]7O)nn6)=C5C)[C@]4(C)CC[C@@]3(C)[C@@H]2C1,IC50,[13],2780 nM
same,IC50,[14],4610 nM
same,IC50,[15],5560 nM
O=C1c2ccccc2-n2c1c(-c1ccc(Cl)cc1Br)c(S(=O)(=O)c1ccccc1)c2-c1ccccc1,IC50,[24],82.3 nM
CCC1=C[C@@H]2CN(C1)Cc1c([nH]c3ccccc13)[C@@](C(=O)OC)(c1cc3c(cc1OC)N(C)[C@H]1[C@@](O)(C(=O)OC)[C@H](OC(C)=O)[C@]4(CC)C=CCN5CC[C@]31[C@@H]54)C2 [VINORELBINE],IC50,[4],434 nM
same,IC50,[5],558 nM
Cc1ccc2c(c1)C(=O)OC1(C)CCCCN21 (stereo not given),IC50,[25],10.1 µg/mL
same,IC50,[26],25.1 µg/mL
O=c1[nH]c(/C=C2/C(c3ccccc3)=C(c3ccccc3)c3cc(C(F)(F)F)ccc32)nc2ccccc12,IC50,[27],9410 nM
CCOc1cccc(-c2ccc3c(c2)c2ccccc2n3C)c1C(=O)Nc1cccc2cccnc12,IC50,[6],9600 nM
same,IC50,[28],15200 nM
FC(F)(F)C1(Nc2ccccc2)Cc2ccsc2-c2nc3ccccc3n21 (stereo not given),IC50,[29],9600 nM
O=C1C=CC2(O)c3c(nc4c(c3-c3ccccc3)c3ccccc3n4Cc3ccccc3)OC2C1 (stereo not given),IC50,[30],2100 nM
same,IC50,[31],900 nM
CC12CCCCN1c1ccc(Br)cc1C(=O)O2 (stereo not given),MIC,[32],12.5 µg/mL
O=C1NC(/C=C2/C(c3ccccc3)=C(c3ccccc3)c3ccccc32)=NC2c3ccccc3OC12 (stereo not given),IC50,[27],8790 nM
CCOc1cc(CC(=O)N[C@@H](CC(C)C)c2ccccc2N2CCCCC2)cc2c1C(=O)N[C@@H](C)C(=O)N[C@@H](C(C)C)C(=O)OC/C(c1ccccc1)=C\C2,fold change (FC),[33],176.3
COc1ccc(-c2c(C3(O)C=CC(=O)C=C3)[nH]c(=O)c3c2c2ccccc2n3Cc2ccccc2)cc1,IC50,[34],660 nM
same,IC50,[35],1390 nM
Cc1ccccc1NC1(C(F)(F)F)Cc2ccccc2C(=O)N1CCO (stereo not given),IC50,[3],1130 nM
CCOC(=O)c1sc(-c2ccc(OCC(C)C)c(C(Nc3ccc(C(F)(F)F)cc3I)P(=O)(OCC)OCC)c2)nc1C (stereo not given),IC50,[19],3.34 µg/mL
same,IC50,[20],12.3 µg/mL
same,IC50,[21],26.1 µg/mL
same,IC50,[22],8.54 µg/mL
same,IC50,[23],14.1 µg/mL
